Where two headings read alike, the source gives them in different places.
Assays:
[1] = molecular target: T1, p53 Y220C mutant protein (amino acid residues 94-293) (Homo sapiens, UniProt P04637, Y220C); experiment: Surface Plasmon Resonance (SPR) assay, Kd_kinetic; format: binding; settings: read-out: SPR P53 Y220C KD kinetic
T1 construct: p53 Y220C mutant protein (amino acid residues 94-293)
Method in brief: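 Temperature held at 16 or 20 °C during Biacore 8K runs. Buffer: 50 mM Tris, pH 7.5, 100 mM NaCl, 1 mM DTT, 0.01% Brij35, 0.05% Tween-20, 1% DMSO.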

[2] = molecular target: T1, p53 Y220C mutant protein (amino acid residues 94-293); experiment: Thermal Shift Assay (TSA), dTM; format: binding; settings: for ΔTm at 100 µM: 100 uM compound; for ΔTm at 10 µM: 10 uM compound
Method in brief: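 TM is derived by fitting Sypro Orange melt curves (30 °C to 50 °C, 0.03 °C/second) to a Boltzmann two-state model. Beforehand, 5 μM p53 Y220C (94-293) sits with 10 μM or 100 μM compound for 3 hours at 20 °C in HEPES pH7.4 buffer containing 100 mM NaCl and 1% DMSO.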

p53 Y220C = p53 Y220C (Homo sapiens, UniProt P04637, Y220C); experiment: Luciferase Reporter Assay (Luc), p53 response element, NClH1299 cells with inducible p53 Y220C; format: cell-based; settings: luciferase reporter, NClH1299 inducible p53 Y220C, 6 hour; for AC50: read-out: Luc P53 Y220C AC50
Method in brief: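 Doxycycline (0.5 ug/mL, 24 h) induces the mutant before a 6-hour compound treatment. Reporter activity is then quantified by One-Glo luminescence.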

NUGC3 p53 Y220C = experiment: Cell Proliferation Assay (CellTiter-Glo, CTG), NUGC3 p53 Y220C; format: cell-based; settings: Homo sapiens, NUGC-3, 120 h, CellTiter-Glo, 5 days
Method in brief: (§1)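 NClH1299 lines stably transduced with Tet-inducible p53 Y220C or R273H, plus NUGC3, were treated with compound for 5 days at 250-500 cells/well. IC50 derived from CellTiter-Glo luminescent signal after 10 min room-temperature incubation.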

H1299 p53 Y220C = experiment: Cell Proliferation Assay (CellTiter-Glo, CTG), H1299 p53 Y220C (NClH1299-inducible p53 Y220C); format: cell-based; settings: Homo sapiens, NCI-H1299, 120 h, CellTiter-Glo, 5 days
Method in brief: as §1

H1299 p53 R273H = experiment: Cell Proliferation Assay (CellTiter-Glo, CTG), H1299 p53 R273H (NClH1299-inducible p53 R273H); format: cell-based; settings: Homo sapiens, NCI-H1299, 120 h, CellTiter-Glo, 5 days
Method in brief: as §1

[3] = thermal shift, read-out: TSA P53 Y220C dTM (100 uM)
[4] = 10 uM tool compound as positive control
[5] = thermal shift, read-out: TSA P53 Y220C dTM (10 uM)
[6] = p53 Y220C, read-out: TSA P53 Y220C dTM
[7] = NClH1299-inducible p53 Y220C cells
[8] = NClH1299-inducible p53 R273H cells

SMILES	Kd ([1]; SPR, kinetic KD, p53 Y220C)	ΔTm at 100 µM [2, 3]	Emax (p53 Y220C; [4])	AC50 (p53 Y220C)	IC50 (NUGC3 p53 Y220C; NUGC3 p53 Y220C)	IC50 (H1299 p53 Y220C; H1299 p53 Y220C)	IC50 (H1299 p53 R273H; H1299 p53 R273H)	ΔTm at 10 µM [2, 5]	Kd [1]	Kd ([1]; SPR, p53 Y220C)	ΔTm at 10 µM [2, 6]	AC50 (p53 Y220C; AC50)	Emax (p53 Y220C; Emax)	IC50 (NUGC3 p53 Y220C; NUGC3 cells)	IC50 (H1299 p53 Y220C; [7])	IC50 (H1299 p53 R273H; [8])	ΔTm at 100 µM [2, 6]
CCS(=O)(=O)c1ccc(NCC#Cc2nc3c(N[C@@H]4CCN(C)C[C@@H]4F)cccn3c2SC(F)(F)F)c(OC)c1 [Example 79, (3S,4R)—N-[2-(3-{[4-(ethanesulfonyl)-2-methoxyphenyl]amino}prop-1-yn-1-yl)-3-[(trifluoromethyl)sulfanyl]imidazo [1,2-a]pyridin-8-yl]-3-fluoro-1-methylpiperidin-4-amine]	< 10 nM	≥ 10 °C	80 to 90%	< 750 nM	< 750 nM	< 750 nM	8000 to 10000 nM										
COc1cc(S(C)(=O)=O)ccc1NCC#Cc1nc2c(N[C@@H]3C[C@H]4CC[C@H](N4)[C@@H]3F)cccn2c1SC(F)(F)F [Example 131]	< 10 nM	≥ 10 °C	70 to 80%	< 750 nM	< 750 nM	< 750 nM	5000 to 8000 nM	≥ 10 °C									
CNC(=O)c1cccc(NCC#Cc2nc3c(N[C@@H]4CCN(C)C[C@@H]4F)cccn3c2SC(F)(F)F)c1 [Example 149]		≥ 10 °C	80 to 90%	< 750 nM	< 750 nM	< 750 nM	≥ 10000 nM	≥ 10 °C	< 10 nM								
CNC(=O)c1ccc(NCC#Cc2nc3c(N[C@@H]4CCN(C)C[C@@H]4F)cccn3c2CC(F)(F)F)cn1 [Example 52, 5-{[3-(8-{[(3S,4R)-3-fluoro-1-methylpiperidin-4-yl]amino}-3-(2,2,2-trifluoroethyl)imidazo[1,2-a]pyridin-2-yl)prop-2-yn-1-yl]amino}-N-methylpyridine-2-carboxamide]	10 to 100 nM	5 to 10 °C	70 to 80%	> 3000 nM	> 3000 nM	1500 to 3000 nM	≥ 10000 nM										
CCNC(=O)c1ccc(OC)c(NCC#Cc2nn3c(N[C@@H]4CCN(C)C[C@@H]4F)cccc3c2SC(F)F)c1 [Example 318]										< 10 nM	≥ 10 °C	< 750 nM	80 to 90%	< 750 nM	< 750 nM	5000 to 8000 nM	
CNC(=O)c1ccc(OC)c(NCC#Cc2cc3c(N[C@@H]4CCN(C)C[C@@H]4F)cccn3c2SC(F)F)c1 [Example 343]										< 10 nM	≥ 10 °C	< 750 nM	> 90%	< 750 nM	< 750 nM	≥ 10000 nM	
CNC(=O)c1ccc(NCC#Cc2nc3c(NC4CCOCC4)cccn3c2SC(F)(F)F)c(OC)c1 [Example 241]										10 to 100 nM	5 to 10 °C	< 750 nM	80 to 90%	< 750 nM	< 750 nM	5000 to 8000 nM	≥ 10 °C
COc1cc(S(C)(=O)=O)ccc1NCC#Cc1nc2c(NC3CCS(=O)(=O)CC3)cccn2c1CC(F)(F)F [Example 4, 4-[(2-{3-[(4-methanesulfonyl-2-methoxyphenyl)amino]prop-1-yn-1-yl}-3-(2,2,2-trifluoroethyl)imidazo[1,2-a]pyridin-8-yl)amino]-1lambda6-thiane-1,1-dione]	10 to 100 nM	5 to 10 °C	< 70%	> 3000 nM	1500 to 3000 nM	> 3000 nM	≥ 10000 nM										
COc1ccc(C(=O)NC(C)C)cc1NCC#Cc1nc2c(N[C@@H]3CCN(C)C[C@@H]3F)cccn2c1SC(F)(F)F [Example 145]	< 10 nM	≥ 10 °C	80 to 90%	< 750 nM	< 750 nM	< 750 nM	≥ 10000 nM	≥ 10 °C									
CNC(=O)c1ccc(NCC#Cc2nc3c(NCC4(F)CN(C)C4)cccn3c2SC(F)(F)F)c(OC)c1 [Example 181]	10 to 100 nM	5 to 10 °C	80 to 90%	1500 to 3000 nM	1500 to 3000 nM	750 to 1500 nM	5000 to 8000 nM	5 to 10 °C									
CNC(=O)c1ccc(NCC#Cc2nc3c(NC4CCN(C)CC4)cccn3c2SC(F)(F)F)c(OC)c1 [Example 129]	< 10 nM	≥ 10 °C	80 to 90%	< 750 nM	< 750 nM	< 750 nM	5000 to 8000 nM	≥ 10 °C									
CNC(=O)c1ccc(NCC#Cc2nc3c(N[C@@H]4CCN(C)C[C@@H]4F)cccn3c2CC(F)(F)F)c(OC)c1 [Example 36, 4-{[3-(8-{[(3S,4R)-3-fluoro-1-methylpiperidin-4-yl]amino}-3-(2,2,2-trifluoroethyl)imidazo[1,2-a]pyridin-2-yl)prop-2-yn-1-yl]amino}3-methoxy-N-methylbenzamide]	< 10 nM	≥ 10 °C	70 to 80%	750 to 1500 nM	750 to 1500 nM	750 to 1500 nM	≥ 10000 nM	5 to 10 °C									
CNC(=O)c1ccc(NCC#Cc2nn3c(N[C@@H]4CCN(C)C[C@@H]4F)cccc3c2SC(F)(F)F)c(OC)c1 [Example 223, 4-{[3-(7-{[(3S,4R)-3-fluoro-1-methylpiperidin-4-yl]amino}-3-[(trifluoromethyl)sulfanyl]pyrazolo[1,5-a]pyridin-2-yl)prop-2-yn-1-yl]amino}-3-methoxy-N-methylbenzamide]										< 10 nM	≥ 10 °C	< 750 nM	80 to 90%	< 750 nM	< 750 nM	≥ 10000 nM	≥ 10 °C
CNC(=O)c1ccc(NCC#Cc2nc3c(N[C@@H]4CCc5ncnn5C4)cccn3c2SC(F)(F)F)c(OC)c1 (stereo in doubt) [Example 190]	< 10 nM	≥ 10 °C	> 90%	< 750 nM	< 750 nM	< 750 nM	≥ 10000 nM	5 to 10 °C									

From patent publication US20260374766A1, “METHODS FOR TREATING CANCER” (Antares Therapeutics, Inc., priority 2022, published 2026)
